Results from US20230141284A1, “CANCER THERAPEUTIC METHOD” (ONO PHARMACEUTICAL CO., LTD., priority 2020, published 2023).
Where a name gives a salt, the structure may show the parent alone.

Key:
[1] = tested on: IRF (Interferon Regulatory Factor) pathway; experiment: Effect on IRF (Interferon Regulatory Factor) pathway, Quanti-luc reporter cells; assay type: cell-based; conditions: activation of the IRF pathway, luminescence, about 24 hours incubation
Description: The cells mainly described at lines 12-20 of the right column on page 183 in Mol Immunol. 2017, Vol. 90, p. 182-189 were suspended in RPMI medium to prepare 2×10^6 cells/mL of cell suspension. 50 μL of the cell suspensions were dispensed into a 96-well plate, to which 50 μL of 6 to 20,000 nmol/L compound solutions were added. After adding the compound, the mixture thereof was incubated at 37° C. for about 24 hours. After incubation, 10 μL of cell suspensions were collected from each well, which were mixed with 50 μL of Quanti-luc (Invivogen). Then, the activation of the IRF pathway was measured by detecting luminescence using a microplate reader (Molecular Devices).

[2] = Conversion of a prodrug to its active body (Compound B) in mouse plasma; assay type: in vitro ADME; conditions: 1 μmol/L, 37° C., 60 minutes
Description: (§1) The solutions of the example compounds in Table 2 below (50 μmol/L, 50% acetonitrile with 5% DMSO) were added to plasma (245 μL), respectively, such that the final concentrations thereof become 1 μmol/L. After keeping them the temperature at 37° C. for 60 minutes, 40 μL of the reaction solutions were taken therefrom, and added to 200 μL of acetonitrile/ethanol (7:3) containing Candesartan (internal standard).
(§2) The concentration of the compound prepared in Example 3 (Compound B) in the plasma resulting from the above reaction was analyzed by LC-MS/MS according to the following method.
(§3) The whole amount was transferred to a filter plate for protein removal and filtered by suction, and the filtrate thereof was diluted 2-fold with water. [LC column] Shim-pack XR-ODSII 2.0 mm ID×75 mm (Shimadzu Corporation) [LC condition] Column temperature: 40° C. Mobile phase: A: 0.2% formic acid in 5 mM ammonium acetate solution; and
(§4) [MS conditions] Electrospray, positive mode, multiple reaction monitoring; MS monitor ion: Compound B: m/z353.0→m/z311.2, DP: 80, CE: 35; and Candesartan (internal standard): m/z309.1→m/z163.0, DP: 71, CE: 21.
(§5) A regression formula was calculated from the peak area ratio (peak area of Compound B/peak area of Candesartan) of the real sample and the standard sample for the calibration curve in the same matrix, and the peak area ratio of the real sample was substituted into the regression formula to calculate the quantitative value. 60 minutes later, the concentration of Compound B in the sample was compared, and the conversion rate (%) thereof was calculated using the following formula:
(§6) Conversion rate (%)=Concentration of Compound B in the sample after 60 minutes (μmol/L)×100

[3] = Conversion of a prodrug to its active body (Compound B) in human plasma; assay type: in vitro ADME; conditions: 1 μmol/L, 37° C., 60 minutes
Description: as §1, §2, §3, §4, §5, §6

| EC50 [1] [nM] | Plasma conversion rate Mouse [2] | Plasma conversion rate Human [3] | SMILES |
| --- | --- | --- | --- |
|  | + + + | + + + | CNCC(=O)OCc1cccnc1N(C)C(=O)OC(C)n1cc(-c2cnc(-c3cc(C(C)=O)c(N)cc3F)c3c(N)noc23)cn1 (stereo not drawn) [Example 12(2), (2-(((1-(4-(5-(5-acetyl-4-amino-2-fluorophenyl)-3-aminoisoxazolo[4,5-c]pyridin-7-yl)-1H-pyrazol-1-yl)ethoxy)carbonyl)(methyl)amino)pyridin-3-yl)methyl methylglycinate] |
|  | + + + | + + + | COC(=O)n1cc(-c2cnc(-c3cc(C(C)=O)c(N)cc3F)c3c(N)noc23)cn1 [Example 12(10), methyl 4-(4-(5-acetyl-4-amino-2-fluorophenyl)-3-aminoisoxazolo[4,5-c]pyridin-7-yl)-1H-pyrazole-1-carboxylate] |
|  | + + + | + + + | CC(=O)c1cc(-c2ncc(-c3cnn(COC(=O)OCCN4CCOCC4)c3)c3onc(N)c23)c(F)cc1N.Cl [Example 12(4), (4-(4-(5-acetyl-4-amino-2-fluorophenyl)-3-aminoisoxazolo[4,5-c]pyridin-7-yl)-1H-pyrazol-1-yl)methyl (2-morpholinoethyl)carbonate hydrochloride] |
|  | + + + | + + + | CC(=O)c1cc(-c2ncc(-c3cnn(COC(=O)OC[C@H]4OC(O)[C@H](O)[C@@H](O)[C@@H]4O)c3)c3onc(N)c23)c(F)cc1N (stereo partly drawn) [Example 12(5), (4-(4-(5-acetyl-4-amino-2-fluorophenyl)-3-aminoisoxazolo[4,5-c]pyridin-7-yl)-1H-pyrazol-1-yl)methyl (((2R,3S,4S,5R)-3,4,5,6-tetrahydroxytetrahydro-2H-pyran-2-yl)methyl) carbonate] |
|  | + + + | + + + | CC(=O)c1cc(-c2ncc(-c3cnn(COC(=O)OC[C@H]4OC(O)[C@H](N)[C@@H](O)[C@@H]4O)c3)c3onc(N)c23)c(F)cc1N.Cl (stereo partly drawn) [Example 12(6), (4-(4-(5-acetyl-4-amino-2-fluorophenyl)-3-aminoisoxazolo[4,5-c]pyridin-7-yl)-1H-pyrazol-1-yl)methyl (((2R,3S,4R,5R)-5-amino-3,4,6-trihydroxytetrahydro-2H-pyran-2-yl)methyl) carbonate hydrochloride] |
| 40 |  |  | CCOC(=O)c1cc(-c2ncc(-c3cn[nH]c3)c3onc(N)c23)c(F)cc1N [Example 4(6), ethyl 2-amino-5-(3-amino-7-(1H-pyrazol-4-yl)isoxazolo[4,5-c]pyridin-4-yl)-4-fluorobenzoate hydrochloride] |
|  | + + + | + + + | CNCC(=O)OCc1cccnc1N(C)C(=O)OCn1cc(-c2cnc(-c3cc(C(C)=O)c(N)cc3F)c3c(N)noc23)cn1.Cl [Example 12(3), 2-((2-((((4-(4-(5-acetyl-4-amino-2-fluorophenyl)-3-aminoisoxazolo[4,5-c]pyridin-7-yl)-1H-pyrazol-1-yl)methoxy)carbonyl)(methyl)amino)pyridin-3-yl)methoxy)-N-methyl-2-oxoethane-1-ammonium chloride] |

More lines, now with the values behind:

| SMILES | EC50 [1] [nM] | Plasma conversion rate Mouse [2] | Plasma conversion rate Human [3] |
| --- | --- | --- | --- |
| NC(=O)c1cc(-c2ncc(-c3cn[nH]c3)c3onc(N)c23)c(F)cc1N [Example 4(5), 2-amino-5-(3-amino-7-(1H-pyrazol-4-yl)isoxazolo[4,5-c]pyridin-4-yl)-4-fluorobenzamide hydrochloride] | 80 |  |  |
| CSc1cc(-c2ncc(-c3cn[nH]c3)c3onc(N)c23)c(Cl)cc1N [Example 4(16), 4-(4-amino-2-chloro-5-(methylthio)phenyl)-7-(1H-pyrazol-4-yl)isoxazolo[4,5-c]pyridin-3-amine hydrochloride] | 1000 |  |  |
| CSc1cc(-c2ncc(-c3cn[nH]c3)c3onc(N)c23)c(F)cc1N [Example 4, 4-(4-amino-2-fluoro-5-(methylthio)phenyl)-7-(1H-pyrazol-4-yl)isoxazolo[4,5-c]pyridin-3-amine hydrochloride] | 90 |  |  |
| CC(=O)c1cc(-c2ncc(-c3cnn(COP(=O)(O)OCOC(=O)OC(C)C)c3)c3onc(N)c23)c(F)cc1N [Example 12(11), ((((4-(4-(5-acetyl-4-amino-2-fluorophenyl)-3-aminoisoxazolo[4,5-c]pyridin-7-yl)-1H-pyrazol-1-yl)methoxy)(hydroxy)phosphoryl)oxy)methyl isopropyl carbonate] |  | + (the conversion rate of each example compound in the table to Compound B is less than 25%) | + (the conversion rate of each example compound in the table to Compound B is less than 25%) |
| CC(=O)c1cc(-c2ncc(-c3cnn(COC(=O)N(C)c4ncccc4COP(=O)(O)O)c3)c3onc(N)c23)c(F)cc1N [Example 12(1), (4-(5-(5-acetyl-4-amino-2-fluorophenyl)-3-aminoisoxazolo[4,5-c]pyridin-7-yl)-1H-pyrazol-1-yl)methyl methyl(3-((phosphonooxy)methyl)pyridin-2-yl)carbamate] |  | + (the conversion rate of each example compound in the table to Compound B is less than 25%) | + + |
| CNC(=O)c1cc(-c2ncc(-c3cn[nH]c3)c3onc(N)c23)ccc1N [Example 4(15), 2-amino-5-(3-amino-7-(1H-pyrazol-4-yl)isoxazolo[4,5-c]pyridin-4-yl)-N-methylbenzamide hydrochloride] | 100 |  |  |
| CC(=O)c1cc(-c2ncc(-c3cnn(COC(=O)N4CCC(N5CCCCC5)CC4)c3)c3onc(N)c23)c(F)cc1N [Example 12, (4-(4-(5-acetyl-4-amino-2-fluorophenyl)-3-aminoisoxazolo[4,5-c]pyridin-7-yl)-1H-pyrazol-1-yl)methyl [1,4′-bipiperidine]-1′-carboxylate] |  | + (the conversion rate of each example compound in the table to Compound B is less than 25%) | + (the conversion rate of each example compound in the table to Compound B is less than 25%) |
| CC(=O)c1cc(-c2ncc(-c3cnn(C(=O)NCC(=O)O)c3)c3onc(N)c23)c(F)cc1N [Example 12(9), (4-(4-(5-acetyl-4-amino-2-fluorophenyl)-3-aminoisoxazolo[4,5-c]pyridin-7-yl)-1H-pyrazole-1-carbonyl)glycine] |  | + (the conversion rate of each example compound in the table to Compound B is less than 25%) | + (the conversion rate of each example compound in the table to Compound B is less than 25%) |
| CCC(=O)c1cc(-c2ncc(-c3cn[nH]c3)c3onc(N)c23)c(F)cc1N [Example 4(7), 1-(2-amino-5-(3-amino-7-(1H-pyrazol-4-yl)isoxazolo[4,5-c]pyridin-4-yl)-4-fluorophenyl)propan-1-one hydrochloride] | 20 |  |  |
| CCNC(=O)c1cc(-c2ncc(-c3cn[nH]c3)c3onc(N)c23)c(F)cc1N [Example 4(8), 2-amino-5-(3-amino-7-(1H-pyrazol-4-yl)isoxazolo[4,5-c]pyridin-4-yl)-N-ethyl-4-fluorobenzamide hydrochloride] | 20 |  |  |
